Measurements as given in patent US20220175768A1, “FGFR TYROSINE KINASE INHIBITORS FOR THE TREATMENT OF UROTHELIAL CARCINOMA” (Janssen Pharmaceutica NV, priority 2019, published 2022).

[1] = 6 mg continuous, regimen 2 (n = 78)
[2] = 8 mg continuous, Regimen 3 (n = 99)
[3] = 8 mg continuous, selected regimen 3 (n = 99)

For `COc1cc(OC)cc(N(CCNC(C)C)c2ccc3ncc(-c4cnn(C)c4)nc3c2)c1` [erdafitinib, N-(3,5-dimethoxy-phenyl)-N′-(1-methylethyl)-N-[3-(1-methyl-1H-pyrazol-4-yl)quinoxalin-6-yl]ethane-1,2-diamine], the “Treatment-related adverse event: Asthenia, Any grade” value [1] was 11 (14) no. (%), the “Treatment-related adverse event: Asthenia, Grade 1” value [1] was 3 (4) no. (%) and the “Treatment-related adverse event: Asthenia, Grade 2” value [1] was 4 (5) no. (%). For the same compound, the “Treatment-related adverse event: Asthenia, Grade ≥3” value [1] was 4 (5) no. (%), the “Treatment-related adverse event: Conjunctivitis, Any grade” value [1] was 2 (3) no. (%) and the “Treatment-related adverse event: Conjunctivitis, Grade 1” value [1] was 2 (3) no. (%). For the same compound, the “Treatment-related adverse event: Conjunctivitis, Grade 2” value [1] was 0 no. (%), the “Treatment-related adverse event: Conjunctivitis, Grade ≥3” value [1] was 0 no. (%) and the “Treatment-related adverse event: Decreased appetite, Any grade” value [1] was 18 (23) no. (%). For the same compound, the “Treatment-related adverse event: Decreased appetite, Grade 1” value [1] was 7 (9) no. (%), the “Treatment-related adverse event: Decreased appetite, Grade 2” value [1] was 9 (12) no. (%) and the “Treatment-related adverse event: Decreased appetite, Grade ≥3” value [1] was 2 (3) no. (%). For the same compound, the “Treatment-related adverse event: Diarrhea, Any grade” value [1] was 29 (37) no. (%), the “Treatment-related adverse event: Diarrhea, Grade 1” value [1] was 16 (21) no. (%) and the “Treatment-related adverse event: Diarrhea, Grade 2” value [1] was 13 (17) no. (%). The “Treatment-related adverse event: Diarrhea, Grade ≥3” value [1] was 0 no. (%), the “Treatment-related adverse event: Dry mouth, Any grade” value [1] was 31 (40) no. (%) and the “Treatment-related adverse event: Dry mouth, Grade 1” value [1] was 23 (30) no. (%). The “Treatment-related adverse event: Dry mouth, Grade 2” value [1] was 6 (8) no. (%), the “Treatment-related adverse event: Dry mouth, Grade ≥3” value [1] was 2 (3) no. (%) and the “Treatment-related adverse event: Dry skin, Any grade” value [1] was 16 (21) no. (%). For the same compound, the “Treatment-related adverse event: Dry skin, Grade 1” value [1] was 8 (10) no. (%), the “Treatment-related adverse event: Dry skin, Grade 2” value [1] was 8 (10) no. (%) and the “Treatment-related adverse event: Dry skin, Grade ≥3” value [1] was 0 no. (%). For the same compound, the “Treatment-related adverse event: Dysgeusia, Any grade” value [1] was 10 (13) no. (%), the “Treatment-related adverse event: Dysgeusia, Grade 1” value [1] was 6 (8) no. (%) and the “Treatment-related adverse event: Dysgeusia, Grade 2” value [1] was 4 (5) no. (%). For the same compound, the “Treatment-related adverse event: Dysgeusia, Grade ≥3” value [1] was 0 no. (%), the “Treatment-related adverse event: Fatigue, Any grade” value [1] was 12 (15) no. (%) and the “Treatment-related adverse event: Fatigue, Grade 1” value [1] was 5 (6) no. (%). The “Treatment-related adverse event: Fatigue, Grade 2” value [1] was 6 (8) no. (%), the “Treatment-related adverse event: Fatigue, Grade ≥3” value [1] was 1 (1) no. (%) and the “Treatment-related adverse event: Hand-foot syndrome, Any grade” value [1] was 12 (15) no. (%). The “Treatment-related adverse event: Hand-foot syndrome, Grade 1” value [1] was 4 (5) no. (%), the “Treatment-related adverse event: Hand-foot syndrome, Grade 2” value [1] was 8 (10) no. (%) and the “Treatment-related adverse event: Hand-foot syndrome, Grade ≥3” value [1] was 0 no. (%). The “Treatment-related adverse event: Hyperphosphatemia, Any grade” value [1] was 49 (63) no. (%), the “Treatment-related adverse event: Hyperphosphatemia, Grade 1” value [1] was 41 (53) no. (%) and the “Treatment-related adverse event: Hyperphosphatemia, Grade 2” value [1] was 8 (10) no. (%). For the same compound, the “Treatment-related adverse event: Hyperphosphatemia, Grade ≥3” value [1] was 0 no. (%), the “Treatment-related adverse event: Lacrimation increased, Any grade” value [1] was 12 (15) no. (%) and the “Treatment-related adverse event: Lacrimation increased, Grade 1” value [1] was 9 (12) no. (%). The “Treatment-related adverse event: Lacrimation increased, Grade 2” value [1] was 3 (4) no. (%), the “Treatment-related adverse event: Lacrimation increased, Grade ≥3” value [1] was 0 no. (%) and the “Treatment-related adverse event: Nausea, Any grade” value [1] was 6 (8) no. (%). The “Treatment-related adverse event: Nausea, Grade 1” value [1] was 4 (5) no. (%), the “Treatment-related adverse event: Nausea, Grade 2” value [1] was 2 (3) no. (%) and the “Treatment-related adverse event: Nausea, Grade ≥3” value [1] was 0 no. (%). For the same compound, the “Treatment-related adverse event: Onycholysis, Any grade” value [1] was 13 (17) no. (%), the “Treatment-related adverse event: Onycholysis, Grade 1” value [1] was 2 (3) no. (%) and the “Treatment-related adverse event: Onycholysis, Grade 2” value [1] was 6 (8) no. (%). For the same compound, the “Treatment-related adverse event: Onycholysis, Grade ≥3” value [1] was 5 (6) no. (%), the “Treatment-related adverse event: Onychomadesis, Any grade” value [1] was 8 (10) no. (%) and the “Treatment-related adverse event: Onychomadesis, Grade 1” value [1] was 2 (3) no. (%). For the same compound, the “Treatment-related adverse event: Onychomadesis, Grade 2” value [1] was 6 (8) no. (%), the “Treatment-related adverse event: Onychomadesis, Grade ≥3” value [1] was 0 no. (%) and the “Treatment-related adverse event: Paronychia, Any grade” value [1] was 11 (14) no. (%). For the same compound, the “Treatment-related adverse event: Paronychia, Grade 1” value [1] was 1 (1) no. (%), the “Treatment-related adverse event: Paronychia, Grade 2” value [1] was 10 (13) no. (%) and the “Treatment-related adverse event: Paronychia, Grade ≥3” value [1] was 0 no. (%). The “Treatment-related adverse event: Retinal detachment, Any grade” value [1] was 8 (10) no. (%), the “Treatment-related adverse event: Retinal detachment, Grade 1” value [1] was 5 (6) no. (%) and the “Treatment-related adverse event: Retinal detachment, Grade 2” value [1] was 3 (4) no. (%). For the same compound, the “Treatment-related adverse event: Retinal detachment, Grade ≥3” value [1] was 0 no. (%), the “Treatment-related adverse event: Stomatitis, Any grade” value [1] was 33 (42) no. (%) and the “Treatment-related adverse event: Stomatitis, Grade 1” value [1] was 13 (17) no. (%). For the same compound, the “Treatment-related adverse event: Stomatitis, Grade 2” value [1] was 13 (17) no. (%), the “Treatment-related adverse event: Stomatitis, Grade ≥3” value [1] was 7 (9) no. (%) and the “Treatment-related adverse event: Vision blurred, Any grade” value [1] was 5 (6) no. (%). For the same compound, the “Treatment-related adverse event: Vision blurred, Grade 1” value [1] was 3 (4) no. (%), the “Treatment-related adverse event: Vision blurred, Grade 2” value [1] was 1 (1) no. (%) and the “Treatment-related adverse event: Vision blurred, Grade ≥3” value [1] was 1 (1) no. (%). The “Treatment-related adverse event: Alopecia, Grade 3” value (8 mg continuous (n = 99)) was 0 no, the “Treatment-related adverse event: Decreased appetite, Grade 3” value (8 mg continuous (n = 99)) was 0 no and the “Treatment-related adverse event: Dry mouth, Grade 3” value (8 mg continuous (n = 99)) was 0 no. For the same compound, the “Treatment-related adverse event: Dry skin, Grade 3” value (8 mg continuous (n = 99)) was 0 no, the “Treatment-related adverse event: Lacrimation increased, Grade 3” value (8 mg continuous (n = 99)) was 0 no and the “Treatment-related adverse event: Vision blurred, Grade 3” value (8 mg continuous (n = 99)) was 0 no. For the same compound, the “Treatment-related adverse event: Weight decreased, Grade 3” value (8 mg continuous (n = 99)) was 0 no, the “Treatment-related adverse event of special interest or clinical importance: Arrhythmia-related events, Any grade” value [2] was 0 no and the “Treatment-related adverse event of special interest or clinical importance: Arrhythmia-related events, Grade ≥3” value [2] was 0 no. The “Patients with Abdominal pain, Any grade” value [3] was 8 (8) no. (%), the “Patients with Abdominal pain, Grade 1” value [3] was 5 (5) no. (%) and the “Patients with Abdominal pain, Grade 2” value [3] was 2 (2) no. (%). For the same compound, the “Patients with Abdominal pain, Grade ≥3” value [3] was 1 (1) no. (%) and the “Patients with Alanine aminotransferase increased, Any grade” value [3] was 17 (17) no. (%).
